Measured values from article PMC5735135, “Oxidative rearrangement of (+)-sesamin by CYP92B14 co-generates twin dietary lignans in sesame” (Nature Communications, 2017).

Columns and labels:
[1] = biological target: T1, CYP92B14 (Sesamum indicum, UniProt A0A2Z5U627); test: inhibition of (+)-sesamolin and (+)-sesaminol formation; format: cell-based; settings: substrate (+)-sesamin; also a reaction by-product
T1 construct: full-length ORF expressed in yeast INVSc with sesame CPR1 (GenBank LC209223) as reductase; microsomes or whole yeast cells
T1 sequence (A0A2Z5U627 1-513): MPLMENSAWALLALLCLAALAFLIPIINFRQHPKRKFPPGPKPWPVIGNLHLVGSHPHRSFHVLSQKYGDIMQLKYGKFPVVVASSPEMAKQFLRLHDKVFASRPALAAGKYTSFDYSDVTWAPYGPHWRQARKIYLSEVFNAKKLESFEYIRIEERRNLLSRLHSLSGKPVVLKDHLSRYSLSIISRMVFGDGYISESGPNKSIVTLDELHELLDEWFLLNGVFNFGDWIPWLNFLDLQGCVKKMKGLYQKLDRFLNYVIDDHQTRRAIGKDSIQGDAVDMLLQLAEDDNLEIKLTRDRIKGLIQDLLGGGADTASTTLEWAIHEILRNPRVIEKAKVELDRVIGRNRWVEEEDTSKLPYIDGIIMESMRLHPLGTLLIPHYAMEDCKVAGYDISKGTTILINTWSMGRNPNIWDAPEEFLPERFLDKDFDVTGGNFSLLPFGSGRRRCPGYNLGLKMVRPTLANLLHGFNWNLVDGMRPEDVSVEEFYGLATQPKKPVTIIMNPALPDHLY

[2] = biological target: T2, CYP81Q1 (Sesamum indicum, UniProt Q33DY0); test: HPLC of products formed by yeast cells ([…] nm); format: cell-based; settings: CPR1 and CYP92B14 co-expressed, 48 h
T2 construct: full-length ORF expressed in yeast INVSc with sesame CPR1 (and CYP92B14); whole yeast cells
T2 sequence (Q33DY0 1-506): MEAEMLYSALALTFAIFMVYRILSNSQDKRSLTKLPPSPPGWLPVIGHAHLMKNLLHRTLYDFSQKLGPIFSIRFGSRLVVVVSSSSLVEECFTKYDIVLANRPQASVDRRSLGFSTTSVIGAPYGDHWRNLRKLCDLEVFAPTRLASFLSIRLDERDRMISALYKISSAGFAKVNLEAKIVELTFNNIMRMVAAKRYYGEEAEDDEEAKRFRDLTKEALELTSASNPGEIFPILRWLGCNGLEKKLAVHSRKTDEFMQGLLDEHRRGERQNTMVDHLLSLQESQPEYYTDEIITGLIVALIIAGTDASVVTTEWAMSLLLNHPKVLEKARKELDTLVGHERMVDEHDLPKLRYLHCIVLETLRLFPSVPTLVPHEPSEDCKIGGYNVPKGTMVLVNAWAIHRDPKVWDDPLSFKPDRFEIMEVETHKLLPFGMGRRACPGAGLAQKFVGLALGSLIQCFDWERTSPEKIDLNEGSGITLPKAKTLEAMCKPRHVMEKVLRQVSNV

[3] = biological target: T1, CYP92B14; test: HPLC of products formed by yeast microsomes; format: biochemical; settings: 100 uM (+)-sesamin, 1 mM NADPH, CPR1 co-expressed, 37 °C, 60 min

Row | Compound | inhibition of (+)-sesamolin and (+)-sesaminol formation [1] | HPLC of products formed by yeast microsomes [3] | further results
1 | OC1OC[C@@H]2[C@@H](c3ccc4c(c3)OCO4)OC[C@H]12 (single isomer, unassigned; (+)) [(+)-samin] | the supplementation of these two compounds clearly inhibited the biosynthetic activity of CYP92B14 |  | 
2 | COc1cc([C@H]2OC[C@H]3[C@@H]2CO[C@@H]3c2ccc(O)c(OC)c2)ccc1O [(+)-pinoresinol] |  |  | HPLC of products formed by yeast cells (283 nm) [2]: co-expressing CYP81Q1, CYP92B14, and CPR1 converted (+)-pinoresinol to (+)-sesaminol and (+)-sesamolin via (+)-sesamin
3 | c1cc2c(cc1[C@H]1OC[C@H]3[C@@H]1CO[C@@H]3c1ccc3c(c1)OCO3)OCO2 [(+)-sesamin] |  | yeast cells expressing CYP92B14 and CPR1 converted (+)-sesamin to (+)-sesamolin | 
4 | c1cc2c(cc1O[C@H]1OC[C@H]3[C@@H]1CO[C@@H]3c1ccc3c(c1)OCO3)OCO2 [(+)-sesamolin] |  | yeast cells expressing CYP92B14 and CPR1 converted (+)-sesamin to (+)-sesamolin | 
5 | Oc1ccc2c(c1)OCO2 [sesamol] | the supplementation of these two compounds clearly inhibited the biosynthetic activity of CYP92B14 |  | 
